According to ChEMBL document CHEMBL4422644, “Synthesis and evaluation of α-aminoacyl amides as antitubercular agents effective on drug resistant tuberculosis” (Eur J Med Chem, 2019):
In brackets after ≈: the same amount, converted by molar mass.

Legend:
HepG2 = assay: Cytotoxicity against human HepG2 cells after 24 hrs by MTT assay; format: functional, cell-based; settings: HepG2, 24 h
Pseudomonas aeruginosa = assay: Antibacterial activity against Pseudomonas aeruginosa ATCC 27853 after 24 hrs; format: functional; settings: ATCC 27853, 24 h
DU-145 = assay: Cytotoxicity against human DU145 cells after 24 hrs by MTT assay; format: functional, cell-based; settings: DU-145, 24 h
[1] = Cytotoxicity against HEK cells after 24 hrs by MTT assay; format: cell-based; settings: Homo sapiens, HEK293, 24 h
A549 = assay: Cytotoxicity against human A549 cells after 24 hrs by MTT assay; format: functional, cell-based; settings: A549, 24 h
Acinetobacter baumannii = assay: Antibacterial activity against Acinetobacter baumannii ATCC BAA-1605 after 24 hrs; format: functional; settings: ATCC BAA-1605, 24 h
MCF7 = assay: Cytotoxicity against human MCF7 cells after 24 hrs by MTT assay; format: functional, cell-based; settings: MCF7, 24 h
Staphylococcus aureus = assay: Antibacterial activity against Staphylococcus aureus ATCC 29213 after 24 hrs; format: functional; settings: ATCC 29213, 24 h
Escherichia coli = assay: Antibacterial activity against Escherichia coli ATCC 25922 after 24 hrs; format: functional; settings: ATCC 25922, 24 h
[2] = Cytotoxicity against […] B16 cells after 24 hrs by MTT assay; format: functional, cell-based; settings: B16, 24 h
CHO-K1 = assay: Cytotoxicity against CHOK1 cells after 24 hrs by MTT assay; format: cell-based; settings: Cricetulus griseus, CHO-K1, 24 h
Klebsiella pneumoniae = assay: Antibacterial activity against Klebsiella pneumoniae ATCC BAA-1705 after 24 hrs; format: functional; settings: ATCC BAA-1705, 24 h
HeLa = assay: Cytotoxicity against human HeLa cells after 24 hrs by MTT assay; format: functional, cell-based
[3] = Selectivity index, ratio of IC50 for CHOK1 cells to MIC for Mycobacterium tuberculosis H37Rv; format: toxicity; settings: hamster, read-out: Selectivity Index
[4] = test system: Mycolicibacterium fortuitum; assay: Antibacterial activity against Mycobacterium fortuitum after 7 days by alamar blue assay; format: functional; settings: 168 h
[5] = test system: Mycobacterium tuberculosis; assay: Antitubercular activity against Mycobacterium tuberculosis H37Rv after 7 days by alamar blue assay; format: functional; settings: 168 h
Mycobacteroides chelonae = assay: Antibacterial activity against Mycobacterium chelonae after 7 days by alamar blue assay; format: functional; settings: 168 h
[6] = test system: Mycobacteroides abscessus; assay: Antibacterial activity against Mycobacterium abscessus after 7 days by alamar blue assay; format: functional; settings: 168 h

| SMILES | MIC (Pseudomonas aeruginosa) | MIC (Acinetobacter baumannii) | MIC (Staphylococcus aureus) | MIC (Escherichia coli) | MIC (Klebsiella pneumoniae) | MIC [4] | MIC [5] | MIC (Mycobacteroides chelonae) | MIC [6] | other results |
| --- | --- | --- | --- | --- | --- | --- | --- | --- | --- | --- |
| Cc1cccc(N(C(=O)c2cccs2)C(C(=O)NC2CCCCC2)c2ccccc2)c1C (stereo unspecified) | > 50 µM | > 50 µM | > 50 µM | > 50 µM | > 50 µM | > 50 µM | 3.12 µM (≈ 1.39 µg/mL) | > 50 µM | > 50 µM | IC50 (HepG2): 9.63 µM; IC50 (DU-145): 9.14 µM; IC50 [1]: 22.9 µM; IC50 (A549): 17.9 µM; IC50 (MCF7): 16.9 µM; IC50 [2]: 14.3 µM; IC50 (CHO-K1): 38.2 µM; IC50 (HeLa): 12.7 µM; selectivity ratio [3]: 12.2 |
| Cc1cccc(N(C(=O)c2ccncc2)C(C(=O)NC2CCCCC2)c2cccnc2)c1C (stereo unspecified) | > 50 µM | > 50 µM | > 50 µM | > 50 µM | > 50 µM | > 50 µM | 3.12 µM (≈ 1.38 µg/mL) | > 50 µM | > 50 µM | IC50 (HepG2): 12.7 µM; IC50 (DU-145): 20.2 µM; IC50 [1]: 86.1 µM; IC50 (A549): 11.8 µM; IC50 (MCF7): 6.14 µM; IC50 [2]: 19.8 µM; IC50 (CHO-K1): 171 µM; IC50 (HeLa): 11.2 µM; selectivity ratio [3]: 11.3 |
| Cc1cccc(N(C(=O)c2ccncc2)C(C(=O)NC2CCCCC2)c2ccccc2)c1C (stereo unspecified) | > 50 µM | > 50 µM | > 50 µM | > 50 µM | > 50 µM | > 50 µM | 6.25 µM (≈ 2.76 µg/mL) | > 50 µM | > 50 µM | IC50 (HepG2): 6.99 µM; IC50 (DU-145): 11.3 µM; IC50 [1]: 38 µM; IC50 (A549): 12.9 µM; IC50 (MCF7): 6.41 µM; IC50 [2]: 12.2 µM; IC50 (CHO-K1): 81.4 µM; IC50 (HeLa): 13.8 µM; selectivity ratio [3]: 13 |
| COc1ccc(C(C(=O)NC2CCCCC2)N(C(=O)c2sc(C)nc2C)c2ccc(C)cc2)cc1 (stereo unspecified) | – | – | – | – | – | – | > 100 µM | – | – | – |
| Cc1ccc(N(C(=O)c2sc(C)nc2C)C(C(=O)NC2CCCCC2)c2ccc(C(F)(F)F)cc2)cc1 (stereo unspecified) | – | – | – | – | – | – | > 100 µM | – | – | – |
| Cc1cccc(N(C(=O)c2ccco2)C(C(=O)NC2CCCCC2)c2ccccc2)c1C (stereo unspecified) | – | – | – | – | – | – | > 100 µM | – | – | – |
| Cc1cccc(N(C(=O)c2ccc(Br)o2)C(C(=O)NC2CCCCC2)c2ccccc2)c1C (stereo unspecified) | – | – | – | – | – | – | > 100 µM | – | – | – |
| Cc1nc(C)c(C(=O)N(c2cnc3ccccc3c2)C(C(=O)NC2CCCCC2)c2ccccc2)s1 (stereo unspecified) | – | – | – | – | – | – | > 100 µM | – | – | – |
| Cc1nc(C)c(C(=O)N(c2ccccc2)C(C(=O)NC2CCCCC2)c2cccc(C(F)(F)F)c2)s1 (stereo unspecified) | – | – | – | – | – | – | > 100 µM | – | – | – |
| Cc1ccc(N(C(=O)c2ccc[nH]2)C(C(=O)NC2CCCCC2)c2ccncc2)cc1 (stereo unspecified) | > 50 µM | > 50 µM | > 50 µM | > 50 µM | > 50 µM | > 50 µM | 25 µM (≈ 10.4 µg/mL) | > 50 µM | > 50 µM | – |
| Cc1ccc(N(C(=O)c2sc(C)nc2C)C(C(=O)NC(C)(C)C)c2ccccc2)cc1 (stereo unspecified) | – | – | – | – | – | – | > 100 µM | – | – | – |
| Cc1ccc(N(C(=O)c2sc(C)nc2C)C(C(=O)NC2CCCCC2)c2ccccc2Cl)cc1 (stereo unspecified) | – | – | – | – | – | – | > 100 µM | – | – | – |
| COc1ccc(C(C(=O)NC2CCCCC2)N(C(=O)c2sc(C)nc2C)c2ccccc2)cc1 (stereo unspecified) | – | – | – | – | – | – | > 100 µM | – | – | – |
| Cc1cccc(C)c1N(C(=O)c1ccc[nH]1)C(C(=O)NC1CCCCC1)c1ccccc1 (stereo unspecified) | > 50 µM | > 50 µM | > 50 µM | > 50 µM | > 50 µM | > 50 µM | 25 µM (≈ 10.7 µg/mL) | > 50 µM | > 50 µM | – |
| Cc1ccc(N(C(=O)c2ccncc2)C(C(=O)NC2CCCCC2)c2cccnc2)cc1 (stereo unspecified) | > 50 µM | > 50 µM | > 50 µM | > 50 µM | > 50 µM | > 50 µM | 25 µM (≈ 10.7 µg/mL) | > 50 µM | > 50 µM | – |
| Cc1ccc(N(C(=O)c2ccc[nH]2)C(C(=O)NC2CCCCC2)c2ccccc2)cc1 (stereo unspecified) | – | – | – | – | – | – | 25 µM (≈ 10.4 µg/mL) | – | – | – |
| Cc1ccc(C)c(N(C(=O)c2sc(C)nc2C)C(C(=O)NC2CCCCC2)c2ccccc2)c1 (stereo unspecified) | – | – | – | – | – | – | > 100 µM | – | – | – |
| Cc1cccc(N(C(=O)c2ccncc2)C(C(=O)NC2CCCCC2)c2ccncc2)c1C (stereo unspecified) | > 50 µM | > 50 µM | > 50 µM | > 50 µM | > 50 µM | > 50 µM | 25 µM (≈ 11.1 µg/mL) | > 50 µM | > 50 µM | – |
| Cc1nc(C)c(C(=O)N(c2ccccc2O)C(C(=O)NC2CCCCC2)c2ccccc2)s1 (stereo unspecified) | > 50 µM | > 50 µM | > 50 µM | > 50 µM | > 50 µM | > 50 µM | 25 µM (≈ 11.6 µg/mL) | > 50 µM | > 50 µM | – |
| Cc1nc(C)c(C(=O)N(c2ccccc2)C(C(=O)NC2CCCCC2)c2cccc(Cl)c2)s1 (stereo unspecified) | – | – | – | – | – | – | > 100 µM | – | – | – |
